Results on eleven compounds are retold here after patent US20130137691A1, “DERIVATIVES OF OXADIAZOLE AND PYRIDAZINE, THEIR PREPARATION AND THEIR APPLICATION IN THERAPEUTICS” (SANOFI, priority 2010, published 2013).

The target of one data set is T1, DGAT-1 enzyme (Homo sapiens, UniProt O75907).
T1 construct: made in house; host or cells: Sf9 insect cells (baculovirus)
T1 sequence (O75907 1-488): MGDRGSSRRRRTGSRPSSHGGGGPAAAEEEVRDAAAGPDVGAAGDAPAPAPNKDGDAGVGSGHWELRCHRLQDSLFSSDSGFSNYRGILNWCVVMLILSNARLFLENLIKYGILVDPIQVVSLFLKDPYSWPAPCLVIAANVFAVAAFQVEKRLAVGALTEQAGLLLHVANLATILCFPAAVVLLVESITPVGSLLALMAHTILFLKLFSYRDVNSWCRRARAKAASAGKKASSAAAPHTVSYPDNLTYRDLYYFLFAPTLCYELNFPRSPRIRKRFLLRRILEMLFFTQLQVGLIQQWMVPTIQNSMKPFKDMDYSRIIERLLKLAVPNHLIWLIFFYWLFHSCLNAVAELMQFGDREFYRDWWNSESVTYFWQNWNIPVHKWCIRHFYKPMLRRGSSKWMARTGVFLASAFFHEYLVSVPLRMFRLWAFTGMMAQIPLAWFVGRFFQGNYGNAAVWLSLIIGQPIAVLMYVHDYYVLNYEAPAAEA
The data set is described as follows: DGAT-1 enzyme inhibition, phase partitioning assay (PPA), 96-well. It counts as biochemical. As to conditions: recombinant DGAT-1 produced in Sf9 insect cells; 1,2-di(cis-9-octadecenoyl)-sn-glycerol and octanoylCoA; read-out: IC50, concentration that inhibits 50% of the activity of DGAT-1. The method, then: The recombinant DGAT-1 protein was produced in Sf9 insect cells transfected with a baculovirus. The reaction was carried out by incubating the enzyme in the presence of 1,2-di(cis-9-octadecenoyl)-sn-glycerol and octanoylCoA. The amount of triacylglycerol formed during the reaction is measured. […] The radioactivity is measured using a MicroBeta counter (Perkin Elmer).

Data set [1] concerns triglyceride biosynthesis in Chang liver cells. The data set is described as follows: Inhibition of triglyceride biosynthesis in Chang liver cells ([14C] glycerol incorporation). The conditions noted are these: read-out: inhibitory activity on triglyceride biosynthesis, concentration that inhibits 50% of the activity.
Protocol: These trials consisted in measuring the in vitro inhibitory activity of the compounds of the invention on a cell test.
Chang liver cells at 80% confluence are detached with trypsin-EDTA, 4 ml per 175 cm^2 flask. After centrifugation at 1300×g for 5 minutes, the cell pellet is washed once with PBS and then resuspended in whole medium. The number of cells and their viability are determined on Mallassez cells via the exclusion method with trypan blue.
150 000 cells are inoculated per well into a 24-well plate for a minimum of 3 h in DMEM medium 4.5 g/l of glucose supplemented with 10% FCS and with antibiotics, and are maintained at 37° C. in an incubator with CO2 (5%).
After 3 h, the cells have adhered, the medium is removed and replaced overnight with DMEM medium 4.5 g/l of glucose with 2% of BSA/oleate.
Next, the cell membranes are destroyed by sonication on a water bath, for 30 minutes. […] The radioactivity is measured using a Flo One C625TR machine (Perkin-Elmer).
The inhibitory activity on triglyceride biosynthesis is given by the concentration that inhibits 50% of the activity.

In the case of `O=C(O)CC1CCC(c2ccc(C(=O)Nc3ccc(Cc4ccccc4)nn3)cc2)CC1` (stereo not drawn) [Compound 3, {4-[4-(6-benzylpyridazin-3-ylcarbamoyl)phenyl]cyclohexyl}acetic acid], the IC50 on DGAT-1 enzyme worked out at 890 nM.

Broadly, the melting point is the temperature, or range, at which the solid turns liquid. On to `O=C(Nc1nc(Cc2ccccc2)no1)c1ccc(C2CCC(C3CC3C(=O)O)CC2)cc1` (stereo not drawn) [Compound 3b, trans-2-{4-[4-(3-benzyl[1.2.4]oxadiazol-5-ylcarbamoyl)phenyl]cyclohexyl}cyclopropanecarboxylic acid], for which the melting point worked out at 187 °C. Also, the IC50 at DGAT-1 enzyme came to 742 nM.

In the case of `O=C(O)/C=C/[C@H]1CC[C@H](c2ccc(C(=O)Nc3nc(Cc4ccccc4)no3)cc2)CC1` [Compound 3c, (E)-3-{4-[4-(3-benzyl[1.2.4]oxadiazol-5-ylcarbamoyl)phenyl]cyclohexyl}acrylic acid], the melting point amounted to 210 °C. Further, the IC50 at DGAT-1 enzyme is 2210 nM.

In the case of `O=C(O)CC[C@H]1CC[C@H](c2ccc(C(=O)Nc3nc(Cc4ccccc4)no3)cc2)CC1` [Compound 3d, trans-3-{4-[4-(3-benzyl[1.2.4]oxadiazol-5-ylcarbamoyl)phenyl]cyclohexyl}propionic acid], the melting point was 193 °C. The IC50 at DGAT-1 enzyme is 927 nM.

`O=C(Nc1nc(C2(c3ccccc3)CC2)no1)c1ccc(O[C@H]2CC[C@@H](C(=O)O)CC2)cc1` [Compound 6, cis-4-{4-[3-(1-phenylcyclopropyl)[1.2.4]oxadiazol-5-ylcarbamoyl]phenoxy}-cyclohexanecarboxylic acid]: the melting point was in the range of 215 to 222 °C. At DGAT-1 enzyme, the IC50 was determined as 3760 nM.

As to `CC(C)(c1ccccc1)c1noc(NC(=O)c2ccc(O[C@H]3CC[C@@H](C(=O)O)CC3)cc2)n1` [Compound 7], the melting point is 250 to 255 °C. For the same compound, on DGAT-1 enzyme, the IC50 worked out at 5700 nM.

Turning to `O=C(Nc1nc(COc2ccccc2)no1)c1ccc(O[C@H]2CC[C@@H](C(=O)O)CC2)cc1` [Compound 8, cis-4-[4-(3-phenoxymethyl[1.2.4]oxadiazol-5-ylcarbamoyl)phenoxy]cyclohexanecarboxylic acid], the melting point was 210 to 212 °C. Besides, on DGAT-1 enzyme, the IC50 turned out to be 94 nM. Further, the IC50 in data set [1] came out at 319 nM.

As for `O=C(Nc1ccc(NC2CCCC2)nn1)c1ccc(O[C@H]2CC[C@@H](C(=O)O)CC2)cc1` [Compound 9, cis 4-[4-(6-cyclopentylaminopyridazin-3-ylcarbamoyl)phenoxy]-cyclohexanecarboxylic acid], on DGAT-1 enzyme, the IC50 was determined as 51 nM.

Consider `O=C(Nc1nc(Cc2ccccc2)no1)c1ccc(O[C@H]2CC[C@@H](C(=O)O)CC2)nc1` [Compound 10, cis-4-[5-(3-benzyl[1.2.4]oxadiazol-5-ylcarbamoyl)pyridin-2-yloxy]-cyclohexanecarboxylic acid], for which the melting point was 205 to 210 °C. For the same compound, the IC50 at DGAT-1 enzyme was determined as 81 nM.

Take `O=C(Nc1ccc(Nc2ccccc2)nn1)c1ccc(O[C@H]2CC[C@@H](C(=O)O)CC2)cc1` [Compound 11, cis-4-[4-(6-phenylaminopyridazin-3-ylcarbamoyl)phenoxy]cyclohexanecarboxylic acid]: the melting point lay within 259 to 261 °C. The IC50 at DGAT-1 enzyme turned out to be 5910 nM.

On to `COc1ccc(-c2ccc(NC(=O)c3ccc(O[C@H]4CC[C@@H](C(=O)O)CC4)cc3)nn2)cc1` [Compound 12, cis-4-{4-[6-(4-methoxyphenyl)pyridazin-3-ylcarbamoyl]phenoxy}-cyclohexanecarboxylic acid], for which the melting point was in the range of 319 to 322 °C. Also, the IC50 at DGAT-1 enzyme stood at 7180 nM.
